Results published in publication PMC4700278, “Molecular and Biochemical Analysis of the Estrogenic and Proliferative Properties of Vitamin E Compounds” (Frontiers in Oncology, 2016).

Columns and labels:
ERα [1] = target: T1, ERα (Homo sapiens, UniProt P03372); experiment: Estrogen receptor-binding assay, competition with [3H]-17β-estradiol; parameters: expressed in transfected cells; host or cells: Cos-7; settings: extracts of cos-7 cells expressing human ERα; 2 nM [3H]-E2; tocols 1 μM to 1 mM; N.M. = not measurable
T1 sequence (P03372 1-595): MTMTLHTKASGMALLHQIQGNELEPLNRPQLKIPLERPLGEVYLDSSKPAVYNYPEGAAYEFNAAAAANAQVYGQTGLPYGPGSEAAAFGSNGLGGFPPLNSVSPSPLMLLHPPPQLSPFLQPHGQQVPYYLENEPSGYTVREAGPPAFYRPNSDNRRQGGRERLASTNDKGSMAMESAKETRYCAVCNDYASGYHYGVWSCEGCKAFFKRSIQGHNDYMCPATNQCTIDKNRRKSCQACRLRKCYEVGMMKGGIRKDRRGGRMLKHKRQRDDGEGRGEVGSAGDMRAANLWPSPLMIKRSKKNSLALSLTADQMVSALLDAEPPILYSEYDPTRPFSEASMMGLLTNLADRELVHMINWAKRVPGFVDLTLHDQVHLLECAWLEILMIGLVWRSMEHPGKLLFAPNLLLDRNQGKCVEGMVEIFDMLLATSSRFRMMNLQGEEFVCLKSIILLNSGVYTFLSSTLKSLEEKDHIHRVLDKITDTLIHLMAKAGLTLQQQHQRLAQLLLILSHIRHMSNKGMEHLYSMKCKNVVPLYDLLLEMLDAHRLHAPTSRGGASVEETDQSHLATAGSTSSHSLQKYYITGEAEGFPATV

HMG-CoA reductase (HMGR) = target: T2, HMG-CoA reductase (HMGR) (Homo sapiens, UniProt P04035); experiment: HMG-CoA reductase activity in microsomal fraction of treated cells; type: cell-based; settings: MCF-7, T47D and MDA-MB-231 cells treated with 500 μM; compared to solvent vehicle-treated cells
T2 construct: endogenous in cells; host or cells: MCF-7, T47D, MDA-MB-231 (microsomal fraction)
T2 sequence (P04035 1-888): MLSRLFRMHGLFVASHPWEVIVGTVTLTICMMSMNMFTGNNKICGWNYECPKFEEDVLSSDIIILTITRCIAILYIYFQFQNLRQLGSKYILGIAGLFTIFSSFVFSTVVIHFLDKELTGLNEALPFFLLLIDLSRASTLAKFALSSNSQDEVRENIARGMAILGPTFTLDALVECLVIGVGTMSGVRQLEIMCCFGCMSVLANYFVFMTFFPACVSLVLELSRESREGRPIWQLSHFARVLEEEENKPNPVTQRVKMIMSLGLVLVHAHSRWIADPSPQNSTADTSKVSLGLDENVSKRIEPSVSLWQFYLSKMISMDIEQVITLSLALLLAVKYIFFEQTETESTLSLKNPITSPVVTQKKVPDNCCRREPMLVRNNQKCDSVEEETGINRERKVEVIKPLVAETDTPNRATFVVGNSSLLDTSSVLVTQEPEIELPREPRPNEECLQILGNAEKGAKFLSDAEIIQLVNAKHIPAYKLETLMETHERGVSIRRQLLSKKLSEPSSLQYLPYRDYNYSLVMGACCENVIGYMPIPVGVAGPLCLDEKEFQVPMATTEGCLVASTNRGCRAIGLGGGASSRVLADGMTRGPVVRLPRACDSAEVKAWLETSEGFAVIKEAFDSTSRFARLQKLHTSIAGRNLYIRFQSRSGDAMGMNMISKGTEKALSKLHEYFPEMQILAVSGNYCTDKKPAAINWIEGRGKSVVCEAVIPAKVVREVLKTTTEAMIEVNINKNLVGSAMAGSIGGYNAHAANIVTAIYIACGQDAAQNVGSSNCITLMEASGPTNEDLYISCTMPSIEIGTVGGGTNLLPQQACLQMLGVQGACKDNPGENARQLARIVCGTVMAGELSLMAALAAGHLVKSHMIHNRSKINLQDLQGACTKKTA
Description: Figure 4 Effect of tocol on ER(+) and ER(−) BC cell proliferation and HMG-CoA reductase activity. (A) Effect of δ-tocols on estrogen and non-estrogen-regulated growth of MCF-7, T47D, and MDA-MB-231 cells. […] Cells were also treated with 30 μM lovastatin (Lova) in the presence or absence of 5 mM M, as described in Section “Materials and Methods.” Values are shown as means and vertical bars represent SEM. The data were analyzed by two-way ANOVA, followed by Bonferroni post hoc test. ***P < 0.001, **P < 0.01, and *P < 0.05 in comparison with control or bare-linked specific control. Ns: not significant. (B) Effect of δ-TT on hydroxymethylglutaryl coenzyme A reductase (HMGR) activity in MCF-7, T47D, and MDA-MB-231 cells. […] Data shown are the mean values ± SEM from three independent experiments performed in triplicate.

ERα [2] = target: T1, ERα; settings: MCF-7 cells; 500 μM δ-TP or δ-TT, 100 nM E2; 3 h; western blot, GAPDH control
Description: Figure 3 Measurement of estrogenicity of tocols in vitro. (A) Dose–response curve of the effect of tocols on MCF-7 cells stably transfected with the ERE-β-globin-tk-Luc plasmid (MELN cells). […] Data shown are the mean values ± SEM from three independent experiments. […] MCF-7 extracts were analyzed for the presence of ERα by western blotting using GAPDH as a control. […] The western blot shown is representative of three independent experiments. The ratio of ERα to GAPDH levels in each experiment was determined densitometrically and normalized to control value (taken to be 1). (D) Effect of δ-tocols on estrogen response element-dependent luciferase activity in HELN cells, which are HELA cells transfected with either fully functional ERα or ERβ or their mutated versions containing a deletion the AB domain (ΔAB). […] Data shown are the mean values ± SEM from three independent experiments. […] Cells were treated with 500 μM δ-tocols in the presence or in the absence of ICI. The relative expression of TGFα, PR, and Ps2 (TFF1) after 16 h was analyzed by quantitative RT-PCR. Data shown are the mean values ± SEM from three independent experiments.

Row | IC50 (ERα [1]) | effect on HMGR activity (HMG-CoA reductase (HMGR)) | degradation of ERα protein (ERα [2]) | SMILES
1 | 118 ± 15 µM | not | not degraded | Cc1cc(O)cc2c1OC(C)(CCCC(C)CCCC(C)CCCC(C)C)CC2 (stereo not drawn) [δ-TP, δ-tocopherol]
2 | 96 ± 6 µM | inhibition of HMGR activity | not degraded | CC(C)=CCC/C(C)=C/CC/C(C)=C/CC[C@]1(C)CCc2cc(O)cc(C)c2O1 [δ-TT, δ-tocotrienol]
